Measurements published in patent US20230339863A1, “INDAZOLE DERIVATIVES AS CANNABINOID RECEPTOR PARTIAL AGONISTS” (RESEARCH TRIANGLE INSTITUTE, priority 2020, published 2023).

What was measured:
human CB1 [1] = target: T1, human CB1 (Homo sapiens (Human), UniProt P21554); test: In vitro cannabinoid receptor activity assay (calcium mobilization, FLIPR) in CHO cells expressing human CB1 and Gαq16; type: cell-based; details: for EC50: CHO cells, hCB1, calcium fluorescence, read-out: hCB1 Ca EC50; for hCB1 Ca Span: percentage of the maximum CP55940 signal
Method: (§1) In vitro cannabinoid receptor activity assay. Chinese Hamster Ovary (CHO) cells stably expressing either human CB1 or CB2 cDNA and the promiscuous G-protein Gαq16 were transferred to each well of a black Costar 96-well optical bottom plate (Corning Corporation). Each plate was incubated at 37° C. for 24 hr to confluence. The culture media was removed from the plates and cells were subsequently loaded with a fluorescent calcium probe (Calcium 5 dye, Molecular Devices) at a final loading concentration of 2 μM in a HBSS-based buffer containing 20 mM HEPES, 1% BSA and 10 μM Probenecid (Sigma) in a total volume of 225 μl. Cells were incubated at 37° C. for 1 hr and then stimulated with various concentrations of a test agent using a FLIPR Tetra plate-reader, which automatically added the agonist at 10× concentration to each well after reading baseline values for ˜17 sec. Agonist-mediated change in fluorescence (488 nm excitation, 525 nm emission) was monitored in each well at 1 sec intervals for 60 sec and reported for each well. Data were analyzed using Prism software (GraphPad). Non-linear regression analysis was performed to fit data and obtain maximum response (Emax), effective concentration for 50% response (EC50), correlation coefficient (r2) and other parameters. All experiments were performed 3-6 times to ensure reproducibility.
(§2) Reference is made to the following reference, hereby incorporated by reference with regard to such assay, Seltzman, et al., Peripherally Selective Cannabinoid 1 Receptor (CB1R) Agonists for the Treatment of Neuropathic Pain, J Med Chem. 2016 Aug. 25; 59 (16):7525-43. doi: 10.1021/acs.jmedchem.6b00516. Epub 2016 Aug. 10.

human CB2 [2] = target: T2, human CB2 (Homo sapiens (Human), UniProt P34972); test: In vitro cannabinoid receptor activity assay (calcium mobilization, FLIPR) in CHO cells expressing human CB2 and Gαq16; type: cell-based; details: for EC50: CHO cells, hCB2, calcium fluorescence, read-out: hCB2 Ca EC50; for hCB2 Ca Span: percentage of the maximum CP55940 signal
Method: as §1, §2

human CB2 [3] = target: T2, human CB2; test: In vitro binding affinity, [3H]CP-55,940 radioligand displacement, HEK cell membranes overexpressing human CB2; details: [3H]CP-55,940 displacement, read-out: hCB2 Ki
Method: (§3) In vitro binding affinity determination using radioligand displacement. Plasma membranes were isolated from HEK cells overexpressing either human CB1 or CB2. Binding was initiated with the addition of 40 μg of cell membrane proteins to assay tubes containing [3H]CP-55,940 (ca. 130 Ci/mmol), a test compound (for displacement studies), and a sufficient quantity of buffer (50 mM Tris-HCl, 1 mM EDTA, 3 mM MgCl2, 5 mg/mL BSA, pH 7.4) to bring the total incubation volume to 0.5 mL. Nonspecific binding was determined by the inclusion of 10 μM unlabeled CP-55,940. Following incubation at 30° C. for 1 h, binding was terminated by vacuum filtration through GF/C glass fiber filter plates. The filter plates were washed extensively and air-dried and sealed on the bottom. Liquid scintillate was added to the wells and the top sealed. After incubating the plates in cocktail for at least 2 h, the radioactivity present was determined by liquid scintillation spectrometry. Assays were done in duplicate, and results represent combined data from 3-6 experiments. Saturation and displacement data were analyzed by unweighted nonlinear regression of receptor binding data. For displacement studies, curve-fitting and IC50 calculation were done with GraphPad Prism (GraphPad Software, Inc., San Diego, CA).
(§4) Reference is made to the following reference, hereby incorporated by reference with regard to such assay, Zhang et al., Synthesis and biological evaluation of bivalent ligands for the cannabinoid 1 receptor, J Med Chem. 2010 Oct. 14; 53 (19):7048-60. doi: 10.1021/jm1006676.

human CB1 [4] = target: T1, human CB1; test: In vitro binding affinity, [3H]CP-55,940 radioligand displacement, HEK cell membranes overexpressing human CB1; details: [3H]CP-55,940 displacement, read-out: hCB1 Ki
Method: as §3, §4

Structure (SMILES) | EC50 (human CB1 [1]) | hCB1 Ca Span (human CB1 [1]) | EC50 (human CB2 [2]) | hCB2 Ca Span (human CB2 [2]) | Ki (human CB2 [3]) | Ki (human CB1 [4])
C[C@H](NC(=O)c1nn(Cc2ccc(F)cc2)c2ccccc12)c1cccc(C(N)=O)c1 [Example 11, N-[(1S)-1-(3-Carbamoylphenyl)ethyl]-1-[(4-fluorophenyl)methyl]-1H-indazole-3-carboxamide] | 27 nM | 86% | 50 nM | 48% | 34 nM | 7 nM
CC(C)(NC(=O)c1nn(Cc2ccc(F)cc2)c2ccccc12)c1cccc(C(N)=O)c1 [Example 12, N-[2-(3-Carbamoylphenyl)propan-2-yl]-1-[(4-fluorophenyl)methyl]-1H-indazole-3-carboxamide] | 21 nM | 24% | 27 nM | 41% | 10 nM | 4 nM
CC(C)(NC(=O)c1nn(Cc2ccc(F)cc2F)c2ccccc12)c1cccc(C(N)=O)c1 [Example 13, N-[2-(3-Carbamoylphenyl)propan-2-yl]-1-[(2,4-difluorophenyl)methyl]-1H-indazole-3-carboxamide] | 180 nM | 32% | 300 nM | 19% | 27 nM | 18 nM
CC(C)(NC(=O)c1nn(Cc2ccc(F)cc2)c2ccccc12)C1CCCN(CC(N)=O)C1 (stereo not drawn) [Example 30, N-{2-[1-(Carbamoylmethyl)piperidin-3-yl]propan-2-yl}-1-[(4-fluorophenyl)methyl]-1H-indazole-3-carboxamide] | 330 nM | 40% | 63 nM | 12% | 21 nM | 48 nM
